# Measurements as given in patent US7659284B2, “Thiazolopyridine kinase inhibitors” (Janssen Pharmaceutica NV, priority 2004, dated 2010).
# Legend:
# Assay type in all cases: biochemical
# c-Src kinase (human) = target: T1, c-Src kinase (human) (Homo sapiens, UniProt P12931); assay: c-Src Kinase Assay; details: for IC50: human c-Src, 5 μM ATP; for inhibition at 1.6 µM: test concentration (2) 1.6 μM, read-out: c-SRC percent inhibition
# T1 construct: purchased Upstate Biotechnology, Lake Placid, N.Y
# Procedure: […] a 10× kinase buffer (80 mM MOPS at pH 7.0, 2 mM EDTA and 100 mM Magnesium Chloride), ATP (5 μM final from a 10 mM stock), a Cdc2 peptide KVEKIGEGTYGVVYK (100 μM final from a 2.5 mM stock), γ-^33P ATP (10 μCi/μL stock) and water (20 μL/well) was added to each well of a Streptavidin Flashplate.
# Test compound in 100% DMSO (0.5 μL) was added to the appropriate wells. Diluted c-Src kinase (human) (Upstate Biotechnology, Lake Placid, N.Y.) (diluted in a buffer consisting of 20 mM MOPS at pH 7.0, 1 mM EDTA, β-mercaptoethanol (0.1%), Brij-35 (0.01%), glycerol (5%), and 1 mg/mL bovine serum albumin) (2.5 μL) was added to the wells to initiate the reactions. The reaction plates were incubated at 30° C. for 40 min. The reaction was terminated by the addition of a 3% phosphoric acid solution (5 μL). The reaction product (10 μL) was spotted onto a P30 filtermat and washed for 5 minutes in phosphoric acid (75 mM). The wash sequence was repeated two more times, followed with one final wash in methanol. The plates were then dried, sealed and read on the TopCount scintillation counter after adding 30 μL scintillation fluid.
# The percent inhibitions and IC50 values were derived according to the procedure described in Example 52. For those compounds without an IC50, the percent inhibition results are shown at a test concentration of ^(1)1 μM or ^(2)1.6 μM.
# EGFR = target: T2, EGFR (Homo sapiens, UniProt P00533); assay: EGFR Kinase Assay (GST-EGFR, 33P-ATP, Streptavidin Flashplate); details: for IC50: GST-EGFR intracellular portion, 5 μM ATP; for inhibition at 2 µM: test concentration of 2 μM, read-out: EGFR percent inhibition
# T2 construct: started at nucleotide 2189 (corresponding to amino acid 667) and ended at the termination codon; made in house; host or cells: Sf9 insect cells (baculovirus)
# Excerpt: The EGFR kinase used was a fusion of Glutathione-S-Transferase (GST) and a PCR amplified intracellular portion of EGFR (NM_005228). The intracellular portion of EGFR started at nucleotide 2189 (corresponding to amino acid 667) and ended at the termination codon. The portion was PCR amplified with primers that added the lambda attB sequences to each end, recombined into an entry vector, then into a GST destination vector (as described in Gateway Technologies Manual by Invitrogen Corporation, Carlsbad, Calif.).
# The destination vector was recombined in the DH10BAC strain of bacteria to produce a bacmid. The bacmid was transfected into Sf 9 cells and the supernatant containing the baculovirus was collected. The GSTEGFR protein was purified using large cultures of Sf 9 cells infected with stock virus. After an appropriate period of time, the cells were collected and lysed. The GSTEGFR was then purified from the lysate on Glutathione-Sepharose columns (as described by Amersham Biosciences, Buckinghamshire, United Kingdom).
# The EGFR substrate was prepared by biotinylating polyGluTyr (128 mg) (Sigma, St. Louis, Mo.) in a 1×PBS buffer incubated together with a 12-fold molar excess of Sulfo-NHS-LC-Biotin on ice for at least 2 hrs. The free biotin was separated from the biotinylated polyGluTyr on a gel filtration column.
# A mixture of a 10× kinase buffer (500 mM Tris at pH 8.0, 100 mM Magnesium Chloride and 1 mM Sodium Vanadate), DTT (1 mM final from 500 mM stock), ATP (5 μM final from 10 mM stock), biotinylated polyGluTyr (10 μg/μL stock), γ-^33P ATP (10 μCi/μL stock) and water was added to each well (90 μL/well) of a Streptavidin Flashplate (Perkin Elmer, Wellesley, Mass.).
# Test compound in 100% DMSO (2 μL) was added to the appropriate wells. Diluted GSTEGFR (1:300 dilution in 50 mM Tris at pH 8.0 and 0.1% bovine serum albumin) (10 μL) was added to the wells to initiate the reactions.
# The plates were incubated at 30° C. for 1 hr with shaking. The reacted contents were removed and the plates were sequentially washed three times with a 1×PBS stop buffer (300 μL without Magnesium and Calcium) and 100 mM EDTA. After the final wash, the same stop buffer (200 μL) was added to the wells. The plates were then sealed and read on the TopCount scintillation counter.
# Test compounds were assayed in triplicate at 16 concentrations at half-log dilutions starting at 200 uM. A maximum and minimum signal for the assay was determined on each plate. The percent inhibition of a test compound was calculated accord to the formula
# For a series of test concentrations, the IC50 was derived by graphing percent inhibition against the log of the concentrations tested for a given compound. For those compounds without an IC50, the percent inhibition results are shown at a test concentration of 2 μM.
# HER-2 = target: T3, HER-2 (Homo sapiens, UniProt P04626); assay: HER-2 Kinase Assay; details: GST-HER2 kinase, 1 μM ATP
# T3 construct: the nucleotides encoding amino acids 679 to 1255 of HER-2; HIS6 with thrombin site (N); purchased Proqinase (Freiburg, Germany)
# Procedure: The HER-2 kinase used was purified at Proqinase (Freiburg, Germany) from a construct that consisted of a fusion of GST (Glutathione-S-Transferase), HIS6-Thrombin and the nucleotides encoding amino acids 679 to 1255 of HER-2.
# A mixture of a 10× kinase reaction buffer (600 mM Hepes at pH 7.5, 30 mM Magnesium Chloride, 0.03 mM Sodium Vanadate and 500 μg/mL PEG 20,000), DTT (1.2 mM final from a 10 mM stock), ATP (1 μM from a 10 mM stock), biotinylated polyGluTyr (1.5 ng/μL final from stock of 1 μg/μL prepared by Upstate Biotechnologies, Lake Placid, N.Y.), Manganese Chloride (3 mM final from a 1 M stock), γy-^33P-ATP (10 μCi/μL stock) and water (70 μL/well) was added to each well of a Streptavidin Flashplate (Cat. # SMP103, NEN, Boston, Mass.).
# Test compound stock (1 μL) was added to the appropriate wells. Diluted GSTHER2 kinase (6.7 ng/μL diluted into 50 mM Tris-HCl at pH 8.0 and 0.1% bovine serum albumin) (30 μL) was added (total volume of 200 ng/well) to initiate the reactions.
# The reaction plates were incubated at 30° C. for 1 hr. The reaction was terminated by aspirating the reaction mixture from the plate wells and washing the wells three times with a 1×PBS stop buffer (300 μL) and 100 mM EDTA. After the final wash, the same stop buffer (200 μL) was again added to the wells. The plates were then sealed and read on the TopCount scintillation counter.
# The IC50 was derived according to the procedure described in Example 52. For those compounds without an IC50, the percent inhibition results are shown at a test concentration of 1 μM.
# T1 sequence (P12931 whole entry): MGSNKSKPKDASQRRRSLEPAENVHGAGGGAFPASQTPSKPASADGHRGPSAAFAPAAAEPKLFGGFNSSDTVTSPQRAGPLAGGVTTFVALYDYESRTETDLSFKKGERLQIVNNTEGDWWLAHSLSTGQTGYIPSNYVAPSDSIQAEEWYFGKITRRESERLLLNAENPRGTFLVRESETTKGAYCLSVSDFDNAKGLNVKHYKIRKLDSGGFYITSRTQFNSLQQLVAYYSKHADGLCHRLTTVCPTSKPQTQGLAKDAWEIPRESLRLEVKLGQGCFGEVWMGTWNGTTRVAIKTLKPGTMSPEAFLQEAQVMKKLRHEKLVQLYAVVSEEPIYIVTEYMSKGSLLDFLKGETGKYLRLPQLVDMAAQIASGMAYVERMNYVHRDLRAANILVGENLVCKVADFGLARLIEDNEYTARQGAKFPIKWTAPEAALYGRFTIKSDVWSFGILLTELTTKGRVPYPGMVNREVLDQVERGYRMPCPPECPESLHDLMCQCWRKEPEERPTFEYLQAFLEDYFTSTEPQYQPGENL
# T2 sequence (P00533 667-1210 limits assumed): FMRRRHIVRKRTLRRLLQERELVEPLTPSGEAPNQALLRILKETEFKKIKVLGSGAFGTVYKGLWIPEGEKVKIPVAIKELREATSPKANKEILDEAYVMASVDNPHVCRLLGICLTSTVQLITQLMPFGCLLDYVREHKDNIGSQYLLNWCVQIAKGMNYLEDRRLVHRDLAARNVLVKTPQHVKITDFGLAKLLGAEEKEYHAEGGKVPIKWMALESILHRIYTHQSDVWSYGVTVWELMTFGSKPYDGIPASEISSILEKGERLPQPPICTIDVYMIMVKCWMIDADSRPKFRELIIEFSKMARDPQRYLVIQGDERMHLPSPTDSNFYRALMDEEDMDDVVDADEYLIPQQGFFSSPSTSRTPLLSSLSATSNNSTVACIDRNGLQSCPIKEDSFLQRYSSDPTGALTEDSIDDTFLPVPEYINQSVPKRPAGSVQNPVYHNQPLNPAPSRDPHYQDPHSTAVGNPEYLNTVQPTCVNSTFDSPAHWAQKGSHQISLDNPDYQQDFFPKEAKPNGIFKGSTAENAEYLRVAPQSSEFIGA
# T3 sequence (P04626 679-1255): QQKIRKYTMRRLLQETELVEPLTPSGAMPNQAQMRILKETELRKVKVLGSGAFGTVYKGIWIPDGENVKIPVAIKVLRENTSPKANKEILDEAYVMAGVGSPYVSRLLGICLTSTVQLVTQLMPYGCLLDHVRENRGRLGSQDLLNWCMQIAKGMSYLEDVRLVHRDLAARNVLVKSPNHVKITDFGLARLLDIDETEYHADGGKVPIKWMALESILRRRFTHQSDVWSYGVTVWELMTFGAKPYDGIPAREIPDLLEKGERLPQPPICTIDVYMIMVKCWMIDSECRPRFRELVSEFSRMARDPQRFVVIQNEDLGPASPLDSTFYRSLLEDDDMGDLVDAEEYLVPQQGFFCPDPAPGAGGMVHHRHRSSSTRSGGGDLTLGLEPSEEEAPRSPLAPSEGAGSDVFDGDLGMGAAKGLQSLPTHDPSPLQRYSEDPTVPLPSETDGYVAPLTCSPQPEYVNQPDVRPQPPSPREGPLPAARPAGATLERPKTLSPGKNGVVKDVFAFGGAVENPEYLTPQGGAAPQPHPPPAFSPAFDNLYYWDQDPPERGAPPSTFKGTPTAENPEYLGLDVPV
compound,measurement,setting,value
"CN1CCN(Cc2ccc(Nc3nc4ncc(C#N)c(Nc5c(Cl)ccc6c5OCO6)c4s3)cc2)CC1 [Cpd 46, 7-(5-chloro-benzo[1,3]dioxol-4-ylamino)-2-[4-(4-methyl-piperazin-1-ylmethyl)-phenylamino]-thiazolo[4,5-b]pyridine-6-carbonitrile]",IC50,c-Src kinase (human),389 nM
"CN1CCCC(COc2ccc(Nc3nc4ncc(C#N)c(Oc5ccc(Cl)cc5Cl)c4s3)cc2)C1 (centres unmarked) [Cpd 36, 7-(2,4-dichloro-phenoxy)-2-[4-(1-methyl-piperidin-3-ylmethoxy)-phenylamino]-thiazolo[4,5-b]pyridine-6-carbonitrile]",inhibition at 1.6 µM,c-Src kinase (human),4%
same,IC50,EGFR,8760 nM
"COc1ccc(Cl)c(Nc2c(C#N)cnc3nc(Nc4ccc(OCC5CCCN(C)C5)cc4)sc23)c1 (centres unmarked) [Cpd 35, 7-(2-chloro-5-methoxy-phenylamino)-2-[4-(1-methyl-piperidin-3-ylmethoxy)-phenylamino]-thiazolo[4,5-b]pyridine-6-carbonitrile]",inhibition at 1.6 µM,c-Src kinase (human),11%
same,IC50,EGFR,461 nM
"CN1CCCC(COc2ccc(Nc3nc4ncc(C#N)c(Nc5c(Cl)ccc6c5OCO6)c4s3)cc2)C1 (centres unmarked) [Cpd 40, 7-(5-chloro-benzo[1,3]dioxol-4-ylamino)-2-[4-(1-methyl-piperidin-3-ylmethoxy)-phenylamino]-thiazolo[4,5-b]pyridine-6-carbonitrile]",IC50,c-Src kinase (human),2390 nM
same,inhibition at 2 µM,EGFR,46%
"N#Cc1cnc2nc(Nc3ccc(CN4CCCCC4)cc3)sc2c1Nc1c(Cl)ccc2c1OCO2 [Cpd 41, 7-(5-chloro-benzo[1,3]dioxol-4-ylamino)-2-(4-piperidin-1-ylmethyl-phenylamino)-thiazolo[4,5-b]pyridine-6-carbonitrile]",IC50,c-Src kinase (human),79 nM
same,inhibition at 2 µM,EGFR,44%
"N#Cc1cnc2nc(Nc3ccc(CN4CCCC4)cc3)sc2c1Nc1ccc(F)c(Cl)c1 [Cpd 17, 7-(3-chloro-4-fluoro-phenylamino)-2-(4-pyrrolidin-1-ylmethyl-phenylamino)-thiazolo[4,5-b]pyridine-6-carbonitrile]",IC50,EGFR,39.9 nM
same,IC50,HER-2,46000 nM
"CN1CCCC(COc2ccc(Nc3nc4ncc(C#N)c(Sc5cccc(Br)c5)c4s3)cc2)C1 (centres unmarked) [Cpd 38, 7-(3-bromo-phenylsulfanyl)-2-[4-(1-methyl-piperidin-3-ylmethoxy)-phenylamino]-thiazolo[4,5-b]pyridine-6-carbonitrile]",inhibition at 1.6 µM,c-Src kinase (human),4%
same,IC50,EGFR,2200 nM
"N#Cc1cnc2nc(Nc3ccc(CNC[C@H]4CCCO4)cc3)sc2c1Nc1c(Cl)ccc2c1OCO2 [Cpd 44, 7-(5-chloro-benzo[1,3]dioxol-4-ylamino)-2-[4-({[(2R)-tetrahydro-furan-2-ylmethyl]-amino}-methyl)-phenylamino]-thiazolo[4,5-b]pyridine-6-carbonitrile]",IC50,c-Src kinase (human),126 nM
same,inhibition at 2 µM,EGFR,47%
"N#Cc1cnc2nc(Nc3ccc(CN4CCCC4)cc3)sc2c1Nc1c(Cl)ccc2c1OCO2 [Cpd 45, 7-(5-chloro-benzo[1,3]dioxol-4-ylamino)-2-(4-pyrrolidin-1-ylmethyl-phenylamino)-thiazolo[4,5-b]pyridine-6-carbonitrile]",IC50,c-Src kinase (human),145 nM
"COc1cc(Nc2nc3ncc(C#N)c(Nc4c(Cl)ccc5c4OCO5)c3s2)ccc1OCC1CCCCO1 (centres unmarked) [Cpd 43, 7-(5-chloro-benzo[1,3]dioxol-4-ylamino)-2-[3-methoxy-4-(tetrahydro-pyran-2-ylmethoxy)-phenylamino]-thiazolo[4,5-b]pyridine-6-carbonitrile]",IC50,c-Src kinase (human),> 100000 nM
same,inhibition at 2 µM,EGFR,4%
"COc1cc(Nc2nc3ncc(C#N)c(Nc4c(Cl)ccc5c4OCO5)c3s2)ccc1OCCN1CCOCC1 [Cpd 42, 7-(5-chloro-benzo[1,3]dioxol-4-ylamino)-2-[3-methoxy-4-(2-morpholin-4-yl-ethoxy)-phenylamino]-thiazolo[4,5-b]pyridine-6-carbonitrile]",IC50,c-Src kinase (human),1380 nM
same,inhibition at 2 µM,EGFR,18%
"CN1CCCC(COc2ccc(Nc3nc4ncc(C#N)c(Oc5cccc(OC(F)(F)F)c5)c4s3)cc2)C1 (centres unmarked) [Cpd 37, 2-[4-(1-methyl-piperidin-3-ylmethoxy)-phenylamino]-7-(3-trifluoromethoxy-phenoxy)-thiazolo[4,5-b]pyridine-6-carbonitrile]",inhibition at 1.6 µM,c-Src kinase (human),3%
same,IC50,EGFR,7210 nM
"C#Cc1cccc(Nc2c(C#N)cnc3nc(Nc4ccc(CN(C)C)cc4)sc23)c1 [Cpd 10, 2-(4-dimethylaminomethyl-phenylamino)-7-(3-ethynyl-phenylamino)thiazolo[4,5-b]pyridine-6-carbonitrile]",IC50,EGFR,56.5 nM
same,IC50,HER-2,10000 nM
"CN1CCCC(COc2ccc(Nc3nc4ncc(C#N)c(Sc5ccc(F)cc5Cl)c4s3)cc2)C1 (centres unmarked) [Cpd 39, 7-(2-chloro-4-fluoro-phenylsulfanyl)-2-[4-(1-methyl-piperidin-3-ylmethoxy)-phenylamino]-thiazolo[4,5-b]pyridine-6-carbonitrile]",IC50,c-Src kinase (human),> 100000 nM
same,IC50,EGFR,3260 nM
